The nature of data set [1]: Stability of GABA and glutamate test samples under storage, treatment and analysis conditions. It is filed as physicochemical. The method, then: The test samples were stored in a freezer at −70° C., and thawed at room temperature before use. 20 μL of microdialysate was added to 20 μL of acetonitrile, well mixed (vortexing, 30 sec) and centrifuged at 3,000 rpm for 5 minutes. A supernatant was taken and injected by 5 μL for LC-MS/MS analysis.
Stability was tested under various conditions for which GABA and a glutamate test sample could be exposed.

Another data set has as its system β-endorphin. The data set can be described thus: Neuropeptide and cytokine concentrations in spinal cord dorsal horn microdialysate after pregabalin. It is filed as in vivo, rat. Conditions: 30 mg/kg pregabalin, neuropathic pain model and control. The source says: Spared nerve injury (SNI) models were used to assess the concentration of a pain indicator substance present in a dorsal horn in the spinal cord. To generate an efficient neuropathic pain model, the rats were anesthetized under 3% isoflurane (Hana Pharm., South Korea), after incision on the left hind of the rat leg the common peroneal and the tibial nerve of three peripheral nerve branches in the sciatic nerve were axotomized and the sural nerve was spared then the surgical site was closed (FIG. 1). After surgery, animals were placed in the home cage to recover. 2 weeks after surgery, hypersensitivity will occur in the lateral area of the rat left hind paw.
Before inserting microdialysis probe into the tissue, the probe was immersed in 70% ethanol and washed for 15 minutes at the flow rate of 3.5 ul/min. Then, the probe was immersed in distilled water and washed for 15 minutes in the same protocol. When the washing step was completed, the probe was inserted at a depth of approximately 2 mm into the dorsal horn of the L1 spinal cord (FIG. 4). […]
For analysis of the neuropeptide and cytokine of the test samples was used using “Luminex 200 multiplex system” by multiplex cytokines assay. Ten most important of pain-related neuropeptides such as IFN-gamma, IL-1 beta, IL-6, IL-10, TNF-α, MCP-1, MIP-1α, BDNF, substance P and β-endorphin and cytokines were analyzed using a total of 4 kits.

From patent US20210069351A1, “METHOD FOR SCREENING PAIN INHIBITING SUBSTANCE” (priority 2017, published 2021) come the findings set out here.

Regarding `N[C@@H](CCC(=O)O)C(=O)O` [Glutamate, glutamate], the “Remaining, freeze/thaw” value in data set [1] (3 cycles, 20 ng/mL) was determined as 104.1%; in data set [1] (3 cycles, 100 ng/mL) it was 100.8%; in data set [1] (3 cycles, 800 ng/mL) it was 101.9%. Further, the “Remaining, autosampler tray” value was 106.5% in data set [1] (4° C. for 6 h, 20 ng/mL); 102.3% in data set [1] (4° C. for 6 h, 100 ng/mL); 101.1% in data set [1] (4° C. for 6 h, 800 ng/mL). Further, the “Remaining, microdialysis sample at RT” value in data set [1] (RT for 6 h, 20 ng/mL) was 101.3%; in data set [1] (RT for 6 h, 100 ng/mL), 97.3%; in data set [1] (RT for 6 h, 800 ng/mL), 99.8%. Further, the “Remaining, long term stability” value is listed as 104.2% in data set [1] (−70° C. 1 month, 20 ng/mL); 98.6% in data set [1] (−70° C. 1 month, 100 ng/mL); 96.0% in data set [1] (−70° C. 1 month, 800 ng/mL).

In the case of `CC(C)C[C@H](CN)CC(=O)O` [pregabalin], the “concentrations of β-endorphin in microdialysate” value in the data set on β-endorphin is “significantly increased and then decreased”.

As for `NCCCC(=O)O` [GABA, γ-aminobutyric acid], the entries for the “Remaining, freeze/thaw” value in data set [1] (20 ng/mL), in data set [1] (100 ng/mL) and in data set [1] (800 ng/mL) were 103.1%, 106.7% and 101.6%, respectively. The “Remaining, long term stability” value in data set [1] (1 month, 20 ng/mL) worked out at 101.8%; in data set [1] (1 month, 100 ng/mL), 102.3%; in data set [1] (1 month, 800 ng/mL), 97.7%. Moreover, the “Remaining, autosampler tray” value in data set [1] (6 h, 20 ng/mL) is listed as 105.4%; in data set [1] (6 h, 100 ng/mL), 101.2%; in data set [1] (6 h, 800 ng/mL), 92.1%. In addition, the “Remaining, microdialysis sample at RT” value in data set [1] (6 h, 20 ng/mL) is given as 105.3%; in data set [1] (6 h, 100 ng/mL), 100.6%; in data set [1] (6 h, 800 ng/mL), 91.8%.
